# Results: paper PMC7405012, “Detection of Chaetomium globosum, Ch. cochliodes and Ch. rectangulare during the Diversity Tracking of Mycotoxin-Producing Chaetomium-like Isolates Obtained in Buildings in Finland” (Toxins, 2020)
# Read-outs that look alike come from different tables or passages of the source.
# Key:
# Ch. globosum 2c/MT = assay: Resistance to biocides: ascospore germination; assay type: cell-based, Chaetomium globosum; details: strain 2c/MT, indoor Ch. globosum
# Protocol: (§1) The toxicity of biocides and chemicals towards the indoor Chaetomium-like isolates and the reference indoor strains of the genera Aspergillus, Paecilomyces, Penicillium and Trichoderma was assessed in parallel with the six parameters presented in the Supplementary Materials: (1) germ tube assay (Figure S3); (2) estimation of turbidity (Figure S4); (3) visual emission of fluorescence (excitation at 360 nm); (4) visual resporulation of conidia; (5) inhibition of glucose consumption; and (6) resazurin reduction. All assays were performed in malt extract broth (12 g L^−1 malt extract, 7.2 µmol mL^−1 glucose, pH 5.5; Scharlab, Barcelona, Spain) in 96-well microtiter plates as described for the ICP assay.
# (§2) The assays measuring inhibition of germination of conidia were done with spore suspensions of 1–2 × 10^6 fungal spores mL−^1. The tests were performed in malt extract broth (Oxoid, Hampshire United Kingdom) 12 g in 1 L, pH 5.5, glucose 7.1 mmol L^−1, and performed on microtiter plates as described by Bencsik et al. for the ICP assay. The germ tube germination is visualized in Figure S3, and the tests estimating turbidity and emission of fluorescence provoked by the germinated and metabolically active conidia and C. globosum ascospores are visualized in Figures S4 and S5. Examples of the tests estimating fluorescence emission, turbidity and re-sporulation of conidia and ascospores are compared in Figure S5. The difference of the endpoints measured with the different assays was between […]. The resazurin reduction assays (Figure S6) were performed as described for the ICP assay, except that the microtiter plates were visually inspected for the change of the blue/violet color of resazurin (indicating inhibition of germination of the exposed conidia) to the […] (indicating metabolic activity and germination of the exposed conidia).
# (§3) The formation of germ tubes was inspected by a phase-contrast microscope (Olympus CKX41, Tokyo, Japan; magnification 400×) and an image recording software (Cellsense® standard version 11.0.06, Olympus Soft Imaging Solutions GmbH, Münster, Germany, 2012) after 1 and 2 days of incubation at 28 °C. The EC50 corresponded to the inhibition of 50% (estimated as the concentration between EC0 and EC100) of the conidia compared to the ethanol control (the growth medium containing 1% of ethanol). The tests were run in triplicate and calibrated with triclosan (CAS: 3380-34-5; Sigma Chemical Co., St. Louis, MO, USA) giving a mean SD of ±<20%.
# [1] = test system: Indoor Trichoderma atroviride Tri335; assay: Resistance to biocides: conidial germination; assay type: cell-based; details: strain Tri335, indoor Trichoderma atroviride
# Protocol: as §1, §2, §3
# [2] = test system: Aspergillus westerdijkiae PP3; assay: Resistance to biocides: conidial germination; assay type: cell-based; details: strain PP3, Aspergillus westerdijkiae
# Protocol: as §1, §2, §3
# [3] = test system: Aspergillus westerdijkiae PP2; assay: Resistance to biocides: conidial germination; assay type: cell-based; details: strain PP2, Aspergillus westerdijkiae
# Protocol: as §1, §2, §3
# [4] = test system: Trichoderma longibrachiatum THG; assay: Resistance to biocides: conidial germination; assay type: cell-based; details: strain THG, indoor Trichoderma longibrachiatum
# Protocol: as §1, §2, §3
# [5] = test system: Aspergillus section Flavi 1/37; assay: Resistance to biocides: conidial germination; assay type: cell-based; details: strain 1/37, indoor Aspergillus section Flavi
# Protocol: as §1, §2, §3
# [6] = test system: Aspergillus calidoustus MH4; assay: Resistance to biocides: conidial germination; assay type: cell-based; details: strain MH4, indoor Aspergillus calidoustus
# Protocol: as §1, §2, §3
# [7] = test system: Aspergillus section Nigri Asp21; assay: Resistance to biocides: conidial germination; assay type: cell-based; details: strain Asp21, indoor Aspergillus section Nigri
# Protocol: as §1, §2, §3
# [8] = test system: Aspergillus section Flavi 7D; assay: Resistance to biocides: conidial germination; assay type: cell-based; details: strain 7D, indoor Aspergillus section Flavi
# Protocol: as §1, §2, §3
# [9] = test system: Aspergillus westerdijkiae AW/KL; assay: Resistance to biocides: conidial germination; assay type: cell-based; details: strain AW/KL
# Protocol: as §1, §2, §3
# [10] = test system: Aspergillus section Nigri Asp33b; assay: Resistance to biocides: conidial germination; assay type: cell-based; details: strain Asp33b, indoor Aspergillus section Nigri
# Protocol: as §1, §2, §3
# [11] = test system: Indoor Trichoderma atroviride 14/AM; assay: Resistance to biocides: conidial germination; assay type: cell-based; details: strain 14/AM
# Protocol: as §1, §2, §3
# Penicillium sp. 20b/skk = assay: Resistance to biocides: conidial germination; assay type: cell-based; details: strain 20b/skk, indoor Penicillium sp.
# Protocol: as §1, §2, §3
# [12] = test system: Aspergillus versicolor SL/3; assay: Resistance to biocides: conidial germination; assay type: cell-based; details: strain SL/3, Aspergillus versicolor
# Protocol: as §1, §2, §3
# [13] = test system: Paecilomyces variotii Pac1/kop; assay: Resistance to biocides: conidial germination; assay type: cell-based; details: strain Pac1/kop, indoor Paecilomyces variotii
# Protocol: as §1, §2, §3
# [14] = test system: Paecilomyces sp. Pec1/skk; assay: Resistance to biocides: conidial germination; assay type: cell-based; details: strain Pec1/skk, indoor Paecilomyces sp.
# Protocol: as §1, §2, §3
# [15] = test system: Aspergillus section Nigri Asp 32; assay: Resistance to biocides: conidial germination; assay type: cell-based; details: strain Asp 32, indoor Aspergillus section Nigri
# Protocol: as §1, §2, §3
# [16] = test system: Trichoderma citrinoviride SJ40; assay: Resistance to biocides: conidial germination; assay type: cell-based; details: strain SJ40, indoor Trichoderma citrinoviride
# Protocol: as §1, §2, §3
# [17] = test system: Indoor Trichoderma atroviride H1/226; assay: Resistance to biocides: conidial germination; assay type: cell-based; details: strain H1/226, indoor Trichoderma atroviride
# Protocol: as §1, §2, §3
# Penicillium sp. 5/skk = assay: Resistance to biocides: conidial germination; assay type: cell-based; details: strain 5/skk, indoor Penicillium sp.
# Protocol: as §1, §2, §3
# Penicillium sp. Vaip/skk = assay: Resistance to biocides: conidial germination; assay type: cell-based; details: strain Vaip/skk, indoor Penicillium sp.
# Protocol: as §1, §2, §3
# [18] = test system: Indoor Trichoderma atroviride KIV10; assay: Resistance to biocides: conidial germination; assay type: cell-based; details: strain KIV10, indoor Trichoderma atroviride
# Protocol: as §1, §2, §3
# [19] = test system: Aspergillus versicolor Gas/226; assay: Resistance to biocides: conidial germination; assay type: cell-based; details: strain Gas/226, Aspergillus versicolor
# Protocol: as §1, §2, §3
# [20] = test system: Paecilomyces variotii Pac2/kop; assay: Resistance to biocides: conidial germination; assay type: cell-based; details: strain Pac2/kop, indoor Paecilomyces variotii
# Protocol: as §1, §2, §3
# [21] = test system: Indoor Trichoderma atroviride Tri7A/SKK; assay: Resistance to biocides: conidial germination; assay type: cell-based; details: strain Tri7A/SKK
# Protocol: as §1, §2, §3
# [22] = Chaetomium globosum, read-out: EC50
compound,measurement,setting,value
"O=BOB(O)OB(O)OB=O [Borax, sodium tetraborate]",EC50,Ch. globosum 2c/MT; [22],> 5000 µg/mL
same,EC50,[1]; read-out: EC50,2500 µg/mL
same,EC50,[2]; read-out: EC50,5000 µg/mL
same,EC50,[3]; read-out: EC50,5000 µg/mL
same,EC50,[4]; read-out: EC50,1200 µg/mL
same,EC50,"[5]; FLAVI1/37, read-out: EC50",5000 µg/mL
same,EC50,[6]; read-out: EC50,5000 µg/mL
same,EC50,[7]; read-out: EC50,≥ 5000 µg/mL
same,EC50,"[8]; FLAVI7D, read-out: EC50",2500 µg/mL
same,EC50,[9]; read-out: EC50,2500 µg/mL
same,EC50,[10]; read-out: EC50,≥ 5000 µg/mL
same,EC50,[11]; read-out: EC50,1200 µg/mL
same,EC50,"Penicillium sp. 20b/skk; SP.20B/SKK, read-out: EC50",> 5000 µg/mL
same,EC50,[12]; read-out: EC50,5000 µg/mL
same,EC50,[13]; read-out: EC50,≥ 5000 µg/mL
same,EC50,[14]; read-out: EC50,≥ 5000 µg/mL
same,EC50,[15]; read-out: EC50,≥ 5000 µg/mL
same,EC50,[16]; read-out: EC50,1200 µg/mL
same,EC50,[17]; read-out: EC50,1200 µg/mL
same,EC50,"Penicillium sp. 5/skk; SP.5/SKK, read-out: EC50",2500 µg/mL
same,EC50,Penicillium sp. Vaip/skk; read-out: EC50,> 5000 µg/mL
same,EC50,[18]; read-out: EC50,2500 µg/mL
same,EC50,[19]; read-out: EC50,5000 µg/mL
same,EC50,[20]; read-out: EC50,≥ 5000 µg/mL
same,EC50,[21]; read-out: EC50,1200 µg/mL
polyhexamethylene biguanide hydrochloride [PHMB],EC50,Ch. globosum 2c/MT,8 µg/mL
same,EC50,[1],4 µg/mL
same,EC50,[2],60 µg/mL
same,EC50,[3],60 µg/mL
same,EC50,[4],1 µg/mL
same,EC50,[5],120 µg/mL
same,EC50,[6],8 µg/mL
same,EC50,[7],30 µg/mL
same,EC50,[8],120 µg/mL
same,EC50,[9],60 µg/mL
same,EC50,[10],30 µg/mL
same,EC50,[11],4 µg/mL
same,EC50,Penicillium sp. 20b/skk,30 µg/mL
same,EC50,[12],60 µg/mL
same,EC50,[13],30 µg/mL
same,EC50,[14],16 µg/mL
same,EC50,[15],60 µg/mL
same,EC50,[16],2 µg/mL
same,EC50,[17],2 µg/mL
same,EC50,Penicillium sp. 5/skk,8 µg/mL
same,EC50,Penicillium sp. Vaip/skk,8 µg/mL
same,EC50,[18],4 µg/mL
same,EC50,[19],60 µg/mL
same,EC50,[20],30 µg/mL
same,EC50,[21],8 µg/mL
"NCl [Chloramine, chloramine]",EC50,Ch. globosum 2c/MT,2500 µg/mL
same,EC50,[2],600 µg/mL
same,EC50,[3],600 µg/mL
same,EC50,[5],600 µg/mL
same,EC50,[8],600 µg/mL
same,EC50,[9],600 µg/mL
same,EC50,Penicillium sp. 20b/skk,600 µg/mL
same,EC50,[12],600 µg/mL
same,EC50,Penicillium sp. 5/skk,600 µg/mL
same,EC50,Penicillium sp. Vaip/skk,600 µg/mL
same,EC50,[18],2400 µg/mL
same,EC50,[21],2500 µg/mL
"OCCOc1ccccc1 [Phenoxy-ethanol, phenoxyethanol]",EC50,Ch. globosum 2c/MT; [22],1500 µg/mL
same,EC50,[1]; read-out: EC50,3000 µg/mL
same,EC50,[2]; read-out: EC50,1500 µg/mL
same,EC50,[3]; read-out: EC50,1500 µg/mL
same,EC50,[4]; read-out: EC50,1500 µg/mL
same,EC50,"[5]; FLAVI1/37, read-out: EC50",1500 µg/mL
same,EC50,[6]; read-out: EC50,3200 µg/mL
same,EC50,[7]; read-out: EC50,3000 µg/mL
same,EC50,"[8]; FLAVI7D, read-out: EC50",1500 µg/mL
same,EC50,[9]; read-out: EC50,1500 µg/mL
same,EC50,[10]; read-out: EC50,3000 µg/mL
same,EC50,[11]; read-out: EC50,3000 µg/mL
same,EC50,"Penicillium sp. 20b/skk; SP.20B/SKK, read-out: EC50",1500 µg/mL
same,EC50,[12]; read-out: EC50,800 µg/mL
same,EC50,[13]; read-out: EC50,3000 µg/mL
same,EC50,[14]; read-out: EC50,3000 µg/mL
same,EC50,[15]; read-out: EC50,3000 µg/mL
same,EC50,[16]; read-out: EC50,1500 µg/mL
same,EC50,[17]; read-out: EC50,1500 µg/mL
same,EC50,"Penicillium sp. 5/skk; SP.5/SKK, read-out: EC50",1500 µg/mL
same,EC50,Penicillium sp. Vaip/skk; read-out: EC50,800 µg/mL
same,EC50,[18]; read-out: EC50,3000 µg/mL
same,EC50,[19]; read-out: EC50,400 µg/mL
same,EC50,[20]; read-out: EC50,3000 µg/mL
same,EC50,[21]; read-out: EC50,1500 µg/mL
"Oc1cc(Cl)ccc1Oc1ccc(Cl)cc1Cl [Triclosan, 5-Chloro-2-(2,4-dichlorophenoxy)phenol]",EC50,Ch. globosum 2c/MT; [22],4 µg/mL
same,EC50,[1]; read-out: EC50,30 µg/mL
same,EC50,[2]; read-out: EC50,16 µg/mL
same,EC50,[3]; read-out: EC50,16 µg/mL
same,EC50,[4]; read-out: EC50,16 µg/mL
same,EC50,"[5]; FLAVI1/37, read-out: EC50",8 µg/mL
same,EC50,[6]; read-out: EC50,16 µg/mL
same,EC50,[7]; read-out: EC50,30 µg/mL
same,EC50,"[8]; FLAVI7D, read-out: EC50",8 µg/mL
same,EC50,[9]; read-out: EC50,16 µg/mL
same,EC50,[10]; read-out: EC50,16 µg/mL
same,EC50,[11]; read-out: EC50,30 µg/mL
same,EC50,"Penicillium sp. 20b/skk; SP.20B/SKK, read-out: EC50",2 µg/mL
same,EC50,[12]; read-out: EC50,16 µg/mL
same,EC50,[13]; read-out: EC50,4 µg/mL
same,EC50,[14]; read-out: EC50,4 µg/mL
same,EC50,[15]; read-out: EC50,16 µg/mL
same,EC50,[16]; read-out: EC50,8 µg/mL
same,EC50,[17]; read-out: EC50,16 µg/mL
same,EC50,"Penicillium sp. 5/skk; SP.5/SKK, read-out: EC50",2 µg/mL
same,EC50,Penicillium sp. Vaip/skk; read-out: EC50,4 µg/mL
same,EC50,[18]; read-out: EC50,30 µg/mL
same,EC50,[19]; read-out: EC50,16 µg/mL
same,EC50,[20]; read-out: EC50,4 µg/mL
same,EC50,[21]; read-out: EC50,16 µg/mL
